In data set [1] the test system is NCI-H358. Kind of data set: Growth inhibition of human H358 cells expressing KRAS […] mutant measured after 3 days by Cell-titer Glo assay. The format is functional. To be noted: NCI-H358, 72 h, time 3 day.
Data set [2] deals with RAF proto-oncogene serine/threonine-protein kinase (Homo sapiens, UniProt P04049). The experiment in a line: Inhibition of human recombinant cRAF measured after 1 hr by TR-FRET assay.
Data set [3] relates to NCI-H358. Kind of data set: Effect on Erk signalling pathway in human H358 cells assessed as increase in Erk phosphorylation by HTRF assay. The format is functional, cell-based.
Data set [4] can be described thus: Stability of compound in mouse liver microsomes assessed as half life. It is filed as ADME, Microsome.
Data set [5] concerns the target Voltage-gated inwardly rectifying potassium channel KCNH2 (Homo sapiens, UniProt Q12809). Kind of data set: Inhibition of hERG. It is filed as toxicity. (In general: The hERG channel carries a current that helps repolarise heart muscle cells.)
A further data set addresses Cytochrome P450 2C19 (Homo sapiens, UniProt P33261). Kind of data set: Inhibition of CYP2C19 in human liver microsomes. It is filed as ADME, Microsome.
The nature of data set [6]: Hepatic clearance in rat liver microsomes. It is filed as ADME, Microsome.
The nature of data set [7]: Stability of compound in rat liver microsomes assessed as half life. It is filed as ADME, Microsome.
A short description of data set [8]: Hepatic clearance in human liver microsomes. It is filed as ADME, Microsome. In general terms: Liver microsomes are a subcellular fraction often used to study metabolism.
Data set [9] can be described thus: Stability of compound in Dog liver microsomes assessed as half life. It is filed as ADME, Canis lupus familiaris, Microsome.
The target of the next data set is Cytochrome P450 2C9 (Homo sapiens, UniProt P11712). The experiment in a line: Inhibition of CYP2C9 in human liver microsomes. The format is ADME, Microsome.
Cytochrome P450 2C9, sequence (P11712 whole entry): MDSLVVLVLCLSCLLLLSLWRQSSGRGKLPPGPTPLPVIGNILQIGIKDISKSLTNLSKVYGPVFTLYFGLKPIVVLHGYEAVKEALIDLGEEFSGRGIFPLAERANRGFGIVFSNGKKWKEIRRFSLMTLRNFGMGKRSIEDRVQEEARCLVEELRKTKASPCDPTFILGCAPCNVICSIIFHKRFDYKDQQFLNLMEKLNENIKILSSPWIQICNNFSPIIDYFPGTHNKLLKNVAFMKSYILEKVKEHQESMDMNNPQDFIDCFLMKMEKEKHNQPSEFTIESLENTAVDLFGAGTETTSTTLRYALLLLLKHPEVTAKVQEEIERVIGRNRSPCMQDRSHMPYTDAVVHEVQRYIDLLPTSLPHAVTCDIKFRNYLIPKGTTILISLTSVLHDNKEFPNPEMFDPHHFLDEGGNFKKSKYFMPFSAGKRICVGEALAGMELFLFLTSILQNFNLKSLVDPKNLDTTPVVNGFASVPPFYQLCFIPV
Data set [10] is described as follows: Hepatic clearance in mouse liver microsomes. It is filed as ADME, Microsome.
Another data set concerns the target T1, Cytochrome P450 1A2 (Homo sapiens, UniProt P05177).
T1 sequence (P05177 whole entry): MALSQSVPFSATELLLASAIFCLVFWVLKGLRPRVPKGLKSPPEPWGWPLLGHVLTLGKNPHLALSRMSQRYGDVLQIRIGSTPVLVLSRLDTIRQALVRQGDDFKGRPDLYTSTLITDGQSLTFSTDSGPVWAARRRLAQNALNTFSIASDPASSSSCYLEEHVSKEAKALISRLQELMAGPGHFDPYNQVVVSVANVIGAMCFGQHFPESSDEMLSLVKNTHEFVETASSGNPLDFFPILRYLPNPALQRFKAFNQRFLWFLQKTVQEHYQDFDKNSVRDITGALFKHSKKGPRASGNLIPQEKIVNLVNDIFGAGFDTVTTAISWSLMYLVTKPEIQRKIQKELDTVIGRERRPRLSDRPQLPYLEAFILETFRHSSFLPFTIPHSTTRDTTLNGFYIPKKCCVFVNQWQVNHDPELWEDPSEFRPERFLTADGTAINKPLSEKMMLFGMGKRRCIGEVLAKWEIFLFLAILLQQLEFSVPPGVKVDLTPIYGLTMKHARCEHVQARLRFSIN
The experiment in a line: Inhibition of CYP1A2 in human liver microsomes. The format is ADME, Microsome.

A short description of data set [11]: Stability of compound in human liver microsomes assessed as half life. The format is ADME, Microsome.
In another data set the target is Cytochrome P450 2D6 (Homo sapiens, UniProt P10635). The experiment in a line: Inhibition of CYP2D6 in human liver microsomes. The arrangement: species or system Microsome.
Cytochrome P450 2D6, sequence (P10635 whole entry): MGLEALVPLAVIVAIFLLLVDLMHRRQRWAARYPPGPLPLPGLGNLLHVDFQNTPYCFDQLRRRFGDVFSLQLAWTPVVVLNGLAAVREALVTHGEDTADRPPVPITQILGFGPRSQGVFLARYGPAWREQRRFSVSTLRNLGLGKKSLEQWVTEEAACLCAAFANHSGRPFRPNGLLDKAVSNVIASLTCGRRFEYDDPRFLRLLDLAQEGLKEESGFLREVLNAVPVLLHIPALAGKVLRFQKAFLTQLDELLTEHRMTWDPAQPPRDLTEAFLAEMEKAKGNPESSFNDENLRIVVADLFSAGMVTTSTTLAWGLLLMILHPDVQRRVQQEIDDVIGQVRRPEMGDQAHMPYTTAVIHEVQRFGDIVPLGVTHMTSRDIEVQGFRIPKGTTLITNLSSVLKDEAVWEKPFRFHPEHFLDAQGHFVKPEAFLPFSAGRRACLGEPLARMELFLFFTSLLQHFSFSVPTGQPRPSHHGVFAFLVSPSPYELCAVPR
The nature of data set [12]: Solubility of compound in PBS at pH 7.4. It is filed as physicochemical.
The nature of data set [13]: Hepatic clearance in dog liver microsomes. The format is ADME, Canis lupus familiaris, Microsome.
Data set [14] concerns the target T2, Cytochrome P450 3A4 (Homo sapiens, UniProt P08684). Kind of data set: Inhibition of CYP3A4 in human liver microsomes using testosterone as substrate. Also noted: species or system Microsome.
Data set [15] addresses T2, Cytochrome P450 3A4. Kind of data set: Inhibition of CYP3A4 in human liver microsomes using midazolam as substrate. The arrangement: species or system Microsome.

Data on ten molecules can be found in ChEMBL document CHEMBL5143623, “Discovery of novel spiro compound as RAF kinase inhibitor with in vitro potency against KRAS mutant cancer” (Bioorg Med Chem Lett, 2022).

In brackets after ≈: the same amount, converted by molar mass. Activity calls are given as the source filed them. Some results are limits rather than exact numbers.

RAF proto-oncogene serine/threonine-protein kinase, sequence (P04049 whole entry): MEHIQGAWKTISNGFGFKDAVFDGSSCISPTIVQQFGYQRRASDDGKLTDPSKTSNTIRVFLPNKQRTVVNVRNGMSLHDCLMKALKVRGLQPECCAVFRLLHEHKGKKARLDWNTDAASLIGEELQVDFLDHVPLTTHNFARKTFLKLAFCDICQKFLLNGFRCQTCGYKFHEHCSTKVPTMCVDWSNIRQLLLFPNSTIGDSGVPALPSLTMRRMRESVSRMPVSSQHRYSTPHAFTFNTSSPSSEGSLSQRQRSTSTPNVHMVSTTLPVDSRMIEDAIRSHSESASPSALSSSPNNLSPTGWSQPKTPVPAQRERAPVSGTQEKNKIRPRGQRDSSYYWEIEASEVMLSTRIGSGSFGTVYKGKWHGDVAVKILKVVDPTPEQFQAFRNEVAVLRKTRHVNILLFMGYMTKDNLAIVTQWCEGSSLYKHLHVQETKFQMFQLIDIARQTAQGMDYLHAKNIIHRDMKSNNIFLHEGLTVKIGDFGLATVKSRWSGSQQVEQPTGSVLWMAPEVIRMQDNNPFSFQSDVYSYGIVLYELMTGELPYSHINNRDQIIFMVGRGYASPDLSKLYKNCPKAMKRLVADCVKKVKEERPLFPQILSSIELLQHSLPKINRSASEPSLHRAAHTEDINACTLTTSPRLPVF
T2 sequence (P08684 whole entry): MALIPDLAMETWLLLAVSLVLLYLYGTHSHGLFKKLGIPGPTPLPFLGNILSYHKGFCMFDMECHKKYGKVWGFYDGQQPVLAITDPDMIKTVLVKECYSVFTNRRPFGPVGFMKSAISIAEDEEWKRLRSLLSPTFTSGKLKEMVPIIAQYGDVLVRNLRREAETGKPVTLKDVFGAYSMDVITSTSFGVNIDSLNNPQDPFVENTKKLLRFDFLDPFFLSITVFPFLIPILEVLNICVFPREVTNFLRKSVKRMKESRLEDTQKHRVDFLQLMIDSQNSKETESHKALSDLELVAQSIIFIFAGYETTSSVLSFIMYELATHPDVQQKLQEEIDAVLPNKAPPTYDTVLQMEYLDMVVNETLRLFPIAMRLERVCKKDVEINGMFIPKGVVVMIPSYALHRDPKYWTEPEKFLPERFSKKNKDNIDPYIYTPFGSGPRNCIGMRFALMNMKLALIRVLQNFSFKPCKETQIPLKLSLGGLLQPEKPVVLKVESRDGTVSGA
Voltage-gated inwardly rectifying potassium channel KCNH2, sequence (Q12809 whole entry): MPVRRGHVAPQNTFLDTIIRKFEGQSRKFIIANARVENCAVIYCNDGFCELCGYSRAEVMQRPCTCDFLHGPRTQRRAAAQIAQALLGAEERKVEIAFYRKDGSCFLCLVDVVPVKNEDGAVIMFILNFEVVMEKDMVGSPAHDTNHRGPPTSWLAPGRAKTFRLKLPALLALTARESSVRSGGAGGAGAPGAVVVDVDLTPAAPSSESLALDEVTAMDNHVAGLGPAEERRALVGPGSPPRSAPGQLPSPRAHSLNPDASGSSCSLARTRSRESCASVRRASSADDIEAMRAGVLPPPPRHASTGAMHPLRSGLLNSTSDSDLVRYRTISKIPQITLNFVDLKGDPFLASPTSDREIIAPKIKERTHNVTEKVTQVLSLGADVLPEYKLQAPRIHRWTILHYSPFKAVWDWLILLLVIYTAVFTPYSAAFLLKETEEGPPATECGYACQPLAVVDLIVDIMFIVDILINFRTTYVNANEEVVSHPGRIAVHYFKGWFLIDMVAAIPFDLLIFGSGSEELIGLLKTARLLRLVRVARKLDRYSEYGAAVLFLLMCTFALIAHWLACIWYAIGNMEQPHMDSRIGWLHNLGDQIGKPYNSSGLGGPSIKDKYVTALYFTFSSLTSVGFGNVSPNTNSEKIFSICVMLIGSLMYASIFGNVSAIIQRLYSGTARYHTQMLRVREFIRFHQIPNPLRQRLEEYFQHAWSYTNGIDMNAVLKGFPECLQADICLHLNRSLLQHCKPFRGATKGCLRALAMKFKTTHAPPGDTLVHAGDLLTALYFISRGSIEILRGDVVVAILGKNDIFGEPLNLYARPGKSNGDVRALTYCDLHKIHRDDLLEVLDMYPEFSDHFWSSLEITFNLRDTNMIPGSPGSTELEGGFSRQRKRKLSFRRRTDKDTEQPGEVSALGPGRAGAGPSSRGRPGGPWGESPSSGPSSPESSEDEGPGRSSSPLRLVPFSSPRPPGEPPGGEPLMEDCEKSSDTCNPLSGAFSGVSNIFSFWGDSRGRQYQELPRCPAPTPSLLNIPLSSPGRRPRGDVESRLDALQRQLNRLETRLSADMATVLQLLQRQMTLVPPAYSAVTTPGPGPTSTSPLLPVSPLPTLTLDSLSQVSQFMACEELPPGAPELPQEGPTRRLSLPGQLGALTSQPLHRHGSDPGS
Cytochrome P450 2C19, sequence (P33261 whole entry): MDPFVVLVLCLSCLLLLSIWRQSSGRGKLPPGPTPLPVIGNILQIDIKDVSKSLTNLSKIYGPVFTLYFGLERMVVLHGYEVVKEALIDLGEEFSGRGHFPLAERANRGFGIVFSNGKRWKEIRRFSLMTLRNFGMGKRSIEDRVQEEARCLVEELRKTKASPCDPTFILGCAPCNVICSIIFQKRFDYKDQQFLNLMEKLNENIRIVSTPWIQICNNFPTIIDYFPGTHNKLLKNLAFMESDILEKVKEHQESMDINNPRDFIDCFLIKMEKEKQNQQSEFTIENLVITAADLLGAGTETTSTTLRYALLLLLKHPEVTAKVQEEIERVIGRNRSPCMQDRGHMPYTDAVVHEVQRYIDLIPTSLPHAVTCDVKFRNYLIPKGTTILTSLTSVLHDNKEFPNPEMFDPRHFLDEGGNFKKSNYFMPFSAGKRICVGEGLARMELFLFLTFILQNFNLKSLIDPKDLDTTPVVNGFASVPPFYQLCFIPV

Broadly, the GI50 is the concentration that inhibits growth by half. Low readings indicate more potent growth inhibition, high ones less potent growth inhibition. As usually defined, the IC50 is the point on the concentration scale where inhibition reaches its midpoint. The molecule `Cc1ccc(NC(=O)c2ccnc(C(F)(F)F)c2)cc1-c1ccc2c(c1)OC1(CCOCC1)C(=O)N2` gave a GI50 in the data set with NCI-H358 [1] of 10 µM. Moreover, the IC50 in [2] worked out at 0.014 µM.

On to `Cc1ccc(NC(=O)c2ccnc(C(F)(F)F)c2)cc1-c1ccc2c(c1)OC1(CCOCC1)CC2N` (configuration not stated), for which halving of growth with NCI-H358 [1] (GI50) required 6.6 µM. Moreover, the IC50 in [2] was 0.021 µM.

As to `Cc1ccc(NC(=O)c2ccnc(C(F)(F)F)c2)cc1-c1cc(OCCO)nc(N2CCOCC2)c1` [NAPORAFENIB], the GI50 in the data set with NCI-H358 [1] was determined as 3 µM. In the data set with NCI-H358 [3], the result was Active.

`Cc1ccc(NC(=O)c2ccnc(C(F)(F)F)c2)cc1-c1ccc2c(c1)OC1(CCCOC1)NC2=O` (configuration not stated): the GI50 with NCI-H358 [1] turned out to be 4.9 µM. In [2], the IC50 was 0.005 µM.

In the data set on NCI-H358 [1], `Cc1ccc(NC(=O)c2ccnc(C(F)(F)F)c2)cc1-c1ccc2c(c1)OC1(CCOCC1)CC2NCCO` (configuration not stated) had a GI50 of 14 µM. In addition, the half-maximal inhibitory concentration (IC50) in data set [2] worked out at 0.029 µM.

`Cc1ccc(NC(=O)c2ccnc(C(F)(F)F)c2)cc1-c1ccc2c(c1)OC1(COC1)NC2=O` returned a GI50 in the data set with NCI-H358 [1] of 10 µM. Besides, in data set [2], the IC50 stood at 0.062 µM.

In the case of `Cc1ccc(NC(=O)c2ccnc(C(F)(F)F)c2)cc1-c1ccc2c(c1)OC1(CCNCC1)NC2=O`, growth with NCI-H358 [1] was halved (GI50) at 15 µM. Further, the IC50 in [2] amounted to 0.019 µM.

What is called half-life is the time needed for the level to fall by half in the phase considered. One may read the solubility as the concentration that dissolves in the medium under given conditions. Higher therefore signals much dissolved substance. In the case of `Cc1ccc(NC(=O)c2ccnc(C(F)(F)F)c2)cc1-c1ccc2c(c1)OC1(CCOCC1)CC2=O`, the half-life was found to be 28.1 min in data set [4], 18.5 min in data set [7], 32.4 min in [9] and 8.1 min in data set [11]. Further, it took 4.2 µM to inhibit growth in the data set with NCI-H358 [1] by half (GI50). Moreover, in the data set on NCI-H358 [3], the result was Active. The IC50 in [2] was 0.015 µM; in [5], 3.4 µM; on Cytochrome P450 2C19 it was over 30 µM; against Cytochrome P450 2C9, over 30 µM; on Cytochrome P450 1A2, over 30 µM; on Cytochrome P450 2D6, over 30 µM. Moreover, the IC50 on Cytochrome P450 3A4 [14] and at Cytochrome P450 3A4 [15] was over 30 µM each time. The CLH in [6] worked out at 52.2 µL/min/g; in [8] it was 18.3 µL/min/g; in data set [10], 61.6 µL/min/g; in [13], 20.6 µL/min/g. In data set [12], this molecule had a solubility of 0.46 µM (≈ 0.228 µg/mL).

On to `Cc1ccc(NC(=O)c2ccnc(C(F)(F)F)c2)cc1-c1ccc2c(c1)OC1(CCOCC1)CC2`, for which growth in the data set on NCI-H358 [1] was halved (GI50) at 13 µM. The IC50 in [2] came to 0.036 µM.

Regarding `Cc1ccc(NC(=O)c2ccnc(C(F)(F)F)c2)cc1-c1cnc2c(c1)OC1(CCOCC1)NC2=O`, the GI50 in the data set on NCI-H358 [1] turned out to be 8.7 µM. Further, in [2], the IC50 came to 0.028 µM.
